Source: patent US8541588B2, “Sulfonamide derivatives” (Pfizer Limited, priority 2009, dated 2013)

Each compound was assayed against T1, Nav1.7 (or SCN9A) channel; HEK cells stably transfected with hSCN9A (Homo sapiens, UniProt Q15858) (assay: Nav1.7 block, PatchXpress 7000 automated whole-cell voltage clamp, estimated IC50 (EIC50)). Details: not given.
T1 construct: expressed in transfected cells
Type: cell-based

T1 sequence (Q15858 whole entry): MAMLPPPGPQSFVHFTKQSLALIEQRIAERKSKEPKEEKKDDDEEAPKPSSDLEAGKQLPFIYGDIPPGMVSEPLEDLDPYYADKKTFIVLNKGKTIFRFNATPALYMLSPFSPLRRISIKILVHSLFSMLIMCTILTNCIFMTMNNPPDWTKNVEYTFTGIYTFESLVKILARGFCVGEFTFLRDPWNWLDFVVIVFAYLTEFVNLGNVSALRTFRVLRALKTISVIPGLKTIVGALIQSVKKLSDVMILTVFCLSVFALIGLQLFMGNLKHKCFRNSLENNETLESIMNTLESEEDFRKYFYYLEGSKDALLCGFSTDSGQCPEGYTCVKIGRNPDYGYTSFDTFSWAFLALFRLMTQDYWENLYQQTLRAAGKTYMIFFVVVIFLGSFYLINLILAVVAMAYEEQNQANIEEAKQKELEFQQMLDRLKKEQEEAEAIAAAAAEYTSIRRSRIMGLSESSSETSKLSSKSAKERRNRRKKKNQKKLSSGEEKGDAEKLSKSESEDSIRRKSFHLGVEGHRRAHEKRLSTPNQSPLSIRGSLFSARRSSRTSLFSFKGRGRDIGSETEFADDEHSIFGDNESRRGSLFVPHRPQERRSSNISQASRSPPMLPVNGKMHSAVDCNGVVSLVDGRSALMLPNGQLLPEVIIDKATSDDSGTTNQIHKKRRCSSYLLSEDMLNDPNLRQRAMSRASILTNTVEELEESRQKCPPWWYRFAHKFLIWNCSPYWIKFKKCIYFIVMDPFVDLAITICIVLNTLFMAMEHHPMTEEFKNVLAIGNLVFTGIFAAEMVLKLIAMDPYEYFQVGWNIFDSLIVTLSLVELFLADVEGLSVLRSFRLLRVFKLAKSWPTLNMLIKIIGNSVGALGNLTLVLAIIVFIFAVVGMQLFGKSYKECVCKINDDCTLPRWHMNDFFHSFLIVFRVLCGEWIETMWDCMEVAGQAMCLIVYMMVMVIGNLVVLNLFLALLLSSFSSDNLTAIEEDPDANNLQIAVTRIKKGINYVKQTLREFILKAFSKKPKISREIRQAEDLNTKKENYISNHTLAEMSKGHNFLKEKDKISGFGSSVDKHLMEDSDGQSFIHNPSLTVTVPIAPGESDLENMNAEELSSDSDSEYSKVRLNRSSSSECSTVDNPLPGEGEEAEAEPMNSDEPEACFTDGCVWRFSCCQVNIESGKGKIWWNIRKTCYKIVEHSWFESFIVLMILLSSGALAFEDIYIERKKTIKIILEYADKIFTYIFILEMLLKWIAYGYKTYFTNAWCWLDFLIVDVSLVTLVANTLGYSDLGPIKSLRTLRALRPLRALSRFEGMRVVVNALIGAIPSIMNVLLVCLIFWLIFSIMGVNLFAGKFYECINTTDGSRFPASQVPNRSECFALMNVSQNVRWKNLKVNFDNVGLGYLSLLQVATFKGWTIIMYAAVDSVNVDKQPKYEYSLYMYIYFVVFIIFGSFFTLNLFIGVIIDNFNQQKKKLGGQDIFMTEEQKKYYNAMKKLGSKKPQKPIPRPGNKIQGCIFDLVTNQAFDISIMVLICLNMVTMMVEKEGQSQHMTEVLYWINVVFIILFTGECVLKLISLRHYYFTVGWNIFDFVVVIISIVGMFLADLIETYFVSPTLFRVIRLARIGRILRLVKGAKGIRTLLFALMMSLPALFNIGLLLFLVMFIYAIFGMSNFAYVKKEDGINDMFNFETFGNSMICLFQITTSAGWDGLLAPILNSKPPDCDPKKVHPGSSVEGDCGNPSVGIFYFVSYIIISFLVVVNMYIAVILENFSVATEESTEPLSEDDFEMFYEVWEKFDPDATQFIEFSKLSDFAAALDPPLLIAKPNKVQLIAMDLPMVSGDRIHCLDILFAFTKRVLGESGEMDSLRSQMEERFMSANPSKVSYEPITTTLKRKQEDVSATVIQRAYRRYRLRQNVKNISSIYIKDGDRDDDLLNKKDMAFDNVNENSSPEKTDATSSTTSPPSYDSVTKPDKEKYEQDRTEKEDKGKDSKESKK

| Compound | IC50 |
| --- | --- |
| O=S(=O)(Nc1ncns1)c1cc(F)c(Oc2ccc(C(F)(F)F)cc2C2=CCNCC2)cc1F [Example 733, 2,5-difluoro-4-[2-(1,2,3,6-tetrahydropyridin-4-yl)-4-(trifluoromethyl)phenoxy]-N-1,2,4-thiadiazol-5-ylbenzenesulfonamide] | 10 nM |

Same assay, conditions: estimated IC50; hSCN9A HEK cells, PatchXpress platform; Examples 283-814

| Compound | IC50 |
| --- | --- |
| Cc1ncsc1-c1cc(Cl)ccc1Oc1ccc(S(=O)(=O)Nc2nccs2)cc1C#N [Example 698, 4-[4-chloro-2-(4-methyl-1,3-thiazol-5-yl)phenoxy]-3-cyano-N-1,3-thiazol-2-ylbenzenesulfonamide] | 96 nM |
| Cn1nccc1-c1ccc(C(F)(F)F)cc1Oc1ccc(S(=O)(=O)Nc2nccs2)cc1C#N [Example 699, 3-cyano-4-[2-(1-methyl-1H-pyrazol-5-yl)-5-(trifluoromethyl)phenoxy]-N-1,3-thiazol-2-ylbenzenesulfonamide] | 140 nM |
| N#Cc1cc(S(=O)(=O)Nc2nccs2)ccc1Oc1ccc(Cl)cc1-c1cccnc1 [Example 700, 4-(4-chloro-2-pyridin-3-ylphenoxy)-3-cyano-N-1,3-thiazol-2-ylbenzenesulfonamide] | 57 nM |
| N#Cc1cc(S(=O)(=O)Nc2nccs2)ccc1Oc1ccc(Cl)cc1-c1cncnc1 [Example 701, 4-(4-chloro-2-pyrimidin-5-ylphenoxy)-3-cyano-N-1,3-thiazol-2-ylbenzenesulfonamide] | 300 nM |
| COc1cc(-c2ccccc2Oc2ccc(S(=O)(=O)Nc3nccs3)cc2C#N)ccc1C#N [Example 703] | 190 nM |
| N#Cc1cc(S(=O)(=O)Nc2nccs2)ccc1Oc1ccccc1-c1cn[nH]c1N [Example 707, 4-[2-(5-amino-1H-pyrazol-4-yl)phenoxy]-3-cyano-N-1,3-thiazol-2-ylbenzenesulfonamide] | 120 nM |
| N#Cc1cc(S(=O)(=O)Nc2nccs2)ccc1Oc1ccc(-n2nc(C(F)F)cc2CO)cc1 [Example 708, 3-cyano-4-{4-[3-(difluoromethyl)-5-(hydroxymethyl)-1H-pyrazol-1-yl]phenoxy}-N-1,3-thiazol-2-ylbenzenesulfonamide] | 400 nM |
| N#Cc1cc(S(=O)(=O)Nc2nccs2)ccc1Oc1ccc(Cl)cc1-c1[nH]ncc1F [Example 710, 4-[4-chloro-2-(4-fluoro-1H-pyrazol-5-yl)phenoxy]-3-cyano-N-1,3-thiazol-2-ylbenzenesulfonamide] | 88 nM |
| N#Cc1cc(S(=O)(=O)Nc2nccs2)ccc1Oc1cc(Cl)ccc1-c1ccn[nH]1 [Example 711, 4-[5-chloro-2-(1H-pyrazol-5-yl)phenoxy]-3-cyano-N-1,3-thiazol-2-ylbenzenesulfonamide] | 40 nM |
| Cc1nc(NS(=O)(=O)c2ccc(Oc3ccccc3-c3ccccc3)c(C#N)c2)sc1F [Example 712, 4-(biphenyl-2-yloxy)-3-cyano-N-(5-fluoro-4-methyl-1,3-thiazol-2-yl)benzenesulfonamide] | 1200 nM |
| N#Cc1cc(S(=O)(=O)Nc2ncc(F)s2)ccc1Oc1ccc(CCCO)cc1-c1cn[nH]c1 [Example 714, 3-cyano-N-(5-fluoro-1,3-thiazol-2-yl)-4-[4-(3-hydroxypropyl)-2-(1H-pyrazol-4-yl)phenoxy]benzenesulfonamide] | 190 nM |
| Cn1nccc1-c1cc(CCCO)ccc1Oc1ccc(S(=O)(=O)Nc2ncc(F)s2)cc1C#N [Example 715, 3-cyano-N-(5-fluoro-1,3-thiazol-2-yl)-4-[4-(3-hydroxypropyl)-2-(1-methyl-1H-pyrazol-5-yl)phenoxy]benzenesulfonamide] | 210 nM |
| Cn1nccc1-c1cc(CCO)ccc1Oc1ccc(S(=O)(=O)Nc2ncc(F)s2)cc1C#N [Example 716, 3-cyano-N-(5-fluoro-1,3-thiazol-2-yl)-4-[4-(2-hydroxyethyl)-2-(1-methyl-1H-pyrazol-5-yl)phenoxy]benzenesulfonamide] | 430 nM |
| Cn1ncnc1-c1cc(Cl)ccc1Oc1ccc(S(=O)(=O)Nc2ncc(F)s2)cc1C#N [Example 717, 4-[4-chloro-2-(1-methyl-1H-1,2,4-triazol-5-yl)phenoxy]-3-cyano-N-(5-fluoro-1,3-thiazol-2-yl)benzenesulfonamide] | >300 nM |
| Cn1nccc1-c1cc(C(F)(F)F)ccc1Oc1ccc(S(=O)(=O)Nc2ncc(F)s2)cc1C#N [Example 718, 3-cyano-N-(5-fluoro-1,3-thiazol-2-yl)-4-[2-(1-methyl-1H-pyrazol-5-yl)-4-(trifluoromethyl)phenoxy]benzenesulfonamide] | 33 nM |
| Cn1nc(C(F)(F)F)cc1-c1ccc(Oc2ccc(S(=O)(=O)Nc3ncc(F)s3)cc2C#N)cc1F [Example 719, 3-cyano-4-{3-fluoro-4-[1-methyl-3-(trifluoromethyl)-1H-pyrazol-5-yl]phenoxy}-N-(5-fluoro-1,3-thiazol-2-yl)benzenesulfonamide] | 160 nM |
| Cn1nc(C(F)(F)F)cc1-c1ccc(Oc2ccc(S(=O)(=O)Nc3ncc(F)s3)cc2C#N)c(Cl)c1 [Example 720, 4-{2-chloro-4-[1-methyl-3-(trifluoromethyl)-1H-pyrazol-5-yl]phenoxy}-3-cyano-N-(5-fluoro-1,3-thiazol-2-yl)benzenesulfonamide] | 56 nM |
| Cn1nccc1-c1cc(C#N)ccc1Oc1ccc(S(=O)(=O)Nc2nccs2)cc1F [Example 721, 4-[4-Cyano-2-(1-methyl-1H-pyrazol-5-yl)phenoxy]-3-fluoro-N-1,3-thiazol-2-ylbenzenesulfonamide] | 160 nM |
| O=S(=O)(Nc1nccs1)c1ccc(Oc2cc(Cl)ccc2-c2ccn[nH]2)c(F)c1 [Example 722, 4-[5-Chloro-2-(1H-pyrazol-5-yl)phenoxy]-3-fluoro-N-1,3-thiazol-2-ylbenzenesulfonamide] | 140 nM |
| CC(C)Cc1ccc(Oc2ccc(S(=O)(=O)Nc3nccs3)cc2F)c(-c2ccnn2C)c1 [Example 723, 3-Fluoro-4-[4-isobutyl-2-(1-methyl-1H-pyrazol-5-yl)phenoxy]-N-1,3-thiazol-2-ylbenzenesulfonamide] | 64 nM |
| N#Cc1cc(S(=O)(=O)Nc2cscn2)ccc1Oc1ccc(C(F)(F)F)cc1-c1cnn(C2CNC2)c1 [Example 727, 4-[2-(1-azetidin-3-yl-1H-pyrazol-4-yl)-4-(trifluoromethyl)phenoxy]-3-cyano-N-1,3-thiazol-4-ylbenzenesulfonamide] | 1900 nM |
| CN1CCC(c2cc(Cl)ccc2Oc2cc(F)c(S(=O)(=O)Nc3ncns3)cc2F)CC1 [Example 734, 4-[4-chloro-2-(1-methylpiperidin-4-yl)phenoxy]-2,5-difluoro-N-1,2,4-thiadiazol-5-ylbenzenesulfonamide] | 53 nM |

Next, values leading:

| IC50 | Compound |
| --- | --- |
| 1.4 nM | N#Cc1cc(S(=O)(=O)Nc2nccs2)ccc1Oc1ccc(Br)cc1-c1cn[nH]c1 [Example 697, 4-[4-Bromo-2-(1H-pyrazol-4-yl)phenoxy]-3-cyano-N-1,3-thiazol-2-ylbenzenesulfonamide] |
| 11 nM | N#Cc1cc(S(=O)(=O)Nc2nccs2)ccc1Oc1ccc(OC(F)(F)F)cc1-c1cn[nH]c1 [Example 704, 3-cyano-4-[2-(1H-pyrazol-4-yl)-4-(trifluoromethoxy)phenoxy]-N-1,3-thiazol-2-ylbenzenesulfonamide] |
| 15 nM | Cn1nccc1-c1cc(Br)ccc1Oc1ccc(S(=O)(=O)Nc2nccs2)cc1C#N [Example 705, 4-[4-bromo-2-(1-methyl-1H-pyrazol-5-yl)phenoxy]-3-cyano-N-1,3-thiazol-2-ylbenzenesulfonamide] |
| 26 nM | N#Cc1cc(S(=O)(=O)Nc2nccs2)ccc1Oc1ccc(Cl)cc1-c1c[nH]nc1N [Example 706, 4-[2-(3-amino-1H-pyrazol-4-yl)-4-chlorophenoxy]-3-cyano-N-1,3-thiazol-2-ylbenzenesulfonamide] |
| 14 nM | N#Cc1cc(S(=O)(=O)Nc2nccs2)ccc1Oc1ccc(Cl)cc1-c1ccn[nH]1 [Example 709, 4-[4-chloro-2-(1H-pyrazol-5-yl)phenoxy]-3-cyano-N-1,3-thiazol-2-ylbenzenesulfonamide] |
| 2.4 nM | N#Cc1cc(S(=O)(=O)Nc2ncc(F)s2)ccc1Oc1ccc(I)cc1-c1ccn[nH]1 [Example 713, 3-Cyano-N-(5-fluoro-1,3-thiazol-2-yl)-4-[4-iodo-2-(1H-pyrazol-5-yl)phenoxy]benzenesulfonamide] |
| 1.7 nM | O=S(=O)(Nc1ncns1)c1ccc(Oc2ccc(Cl)cc2-c2cn[nH]c2)c(Cl)c1 [Example 724, 3-chloro-4-[4-chloro-2-(1H-pyrazol-4-yl)phenoxy]-N-1,2,4-thiadiazol-5-ylbenzenesulfonamide] |
| 20 nM | CN1CCC(n2nccc2-c2cc(Cl)ccc2Oc2ccc(S(=O)(=O)Nc3ncns3)cc2C#N)CC1 [Example 725, 4-{4-chloro-2-[1-(1-methylpiperidin-4-yl)-1H-pyrazol-5-yl]phenoxy}-3-cyano-N-1,2,4-thiadiazol-5-ylbenzenesulfonamide] |
| 5.8 nM | O=S(=O)(Nc1cscn1)c1cc(Cl)c(Oc2ccc(Cl)cc2-c2ccnn2C2CNC2)cc1F [Example 726, 4-[2-(1-azetidin-3-yl-1H-pyrazol-5-yl)-4-chlorophenoxy]-5-chloro-2-fluoro-N-1,3-thiazol-4-ylbenzenesulfonamide] |
| 4.8 nM | N#Cc1cc(S(=O)(=O)Nc2ncns2)ccc1Oc1ccc(Cl)cc1-c1ccnn1C1CNC1 [Example 728, 4-[2-(1-azetidin-3-yl-1H-pyrazol-5-yl)-4-chlorophenoxy]-3-cyano-N-1,2,4-thiadiazol-5-ylbenzenesulfonamide] |
| 22 nM | CN1CC(n2nccc2-c2cc(Cl)ccc2Oc2ccc(S(=O)(=O)Nc3cscn3)cc2C#N)C1 [Example 729, 4-{4-chloro-2-[1-(1-methylazetidin-3-yl)-1H-pyrazol-5-yl]phenoxy}-3-cyano-N-1,3-thiazol-4-ylbenzenesulfonamide] |
| 9.9 nM | CN1CC(n2nccc2-c2cc(Cl)ccc2Oc2cc(F)c(S(=O)(=O)Nc3cscn3)cc2Cl)C1 [Example 730, 5-chloro-4-{4-chloro-2-[1-(1-methylazetidin-3-yl)-1H-pyrazol-5-yl]phenoxy}-2-fluoro-N-1,3-thiazol-4-ylbenzenesulfonamide] |
| 3.5 nM | Nc1cc(-c2cc(Cl)ccc2Oc2cc(F)c(S(=O)(=O)Nc3ncns3)cc2Cl)ccn1 [Example 732, 4-[2-(2-aminopyridin-4-yl)-4-chlorophenoxy]-5-chloro-2-fluoro-N-1,2,4-thiadiazol-5-ylbenzenesulfonamide] |
